Data as given in PubChem BioAssay (NCI).
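A five-concentration, 48-hour dose response in 96-well plates underlies each endpoint, interpolated linearly between surrounding concentrations. The concentration for full growth arrest is given as TGI.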

Assays:
Experiment in all cases: NCI tumour cell line growth inhibition, 48 h
[1] = test system: NCI-H522 lung
[2] = test system: EKVX NSCLC
[3] = test system: SN12C renal
[4] = test system: BT-549 breast
[5] = test system: RXF 393 renal
[6] = test system: MOLT-4 leukemia
[7] = test system: UO-31 renal
[8] = test system: SNB-75 CNS
[9] = test system: RPMI-8226 leukemia
[10] = test system: MCF7 breast
[11] = test system: MALME-3M melanoma
[12] = test system: SK-MEL-2 melanoma
[13] = test system: U251 CNS
[14] = test system: SNB-19 CNS
[15] = test system: OVCAR-3 ovarian
[16] = test system: KM12 colon
[17] = test system: OVCAR-4 ovarian
[18] = test system: T-47D breast
[19] = test system: NCI-H460 lung
[20] = test system: UACC-257 melanoma
[21] = test system: SK-MEL-5 melanoma
[22] = test system: HCT-15 colon
[23] = test system: HL-60(TB) leukemia
[24] = test system: SF-268 CNS
[25] = test system: IGROV1 ovarian
[26] = test system: K-562 leukemia
[27] = test system: HT29 colon
[28] = test system: A498 renal
[29] = test system: MDA-N
[30] = test system: SF-295 CNS
[31] = test system: OVCAR-8 ovarian
[32] = test system: MDA-MB-435
[33] = test system: OVCAR-5 ovarian
[34] = test system: DU-145 prostate
[35] = test system: SF-539 CNS
[36] = test system: HOP-92 NSCLC
[37] = test system: A549 NSCLC
[38] = test system: CCRF-CEM leukemia
[39] = test system: MDA-MB-231 breast
[40] = test system: HCC-2998 colon
[41] = test system: NCI/ADR-RES ovarian
[42] = test system: TK-10 renal
[43] = test system: PC-3 prostate
[44] = test system: HOP-62 NSCLC
[45] = test system: ACHN renal
[46] = test system: 786-0 renal
[47] = test system: M14 melanoma
[48] = test system: HS 578T breast
[49] = test system: COLO 205 colon
[50] = test system: HCT-116 colon
[51] = test system: UACC-62 melanoma
[52] = test system: NCI-H23 lung
[53] = test system: SR leukemia
[54] = test system: SW-620 colon
[55] = test system: CAKI-1 renal
[56] = test system: NCI-H226 lung
[57] = test system: SK-OV-3 ovarian
[58] = test system: SK-MEL-28 melanoma
[59] = test system: LOX IMVI melanoma

Measured: TGI

C=C(C)C(O)C(O)c1c(OC)ccc2ccc(=O)oc12 (stereo not given)
not listed: [59]
> 100 µM: all other assays above

C#CCSC(C=C=C)P(=O)(OC(C)C)OC(C)C (stereo not given)
83.6 µM: [1]
75.1 µM: [40]
94.5 µM: [27]
65.2 µM: [6]
88.3 µM: [3]
82.8 µM: [4]
62.8 µM: [50]
44.1 µM: [48]
68.4 µM: [26]
not listed: [35] | [38]
> 100 µM: all other assays above
